In brackets after ≈: the same amount, converted by molar mass. Like-named read-outs stand apart in the source and are kept apart here.
Legend:
[1] = tested on: Haemophilus influenzae ATCC 19418; assay: Bacteriostatic power in solid medium (MIC), aerobic Gram negative; format: cell-based; settings: Haemophilus influenzae, ATCC19418, LRP 213, read-out: minimum inhibiting concentration
Source text: (§1) Turning now to an examination of the novel macrolide antibiotics produced according to the present invention, they are all characterized by a bacteriostatic spectrum like that of erythromycin and by the stability in acidic environment, whereby their direct administration by oral route is possible, without having recourse to esters and/or salts, showing the afore mentioned disadvantages and problems. The above is confirmed by the following Table 1, wherein the MIC values are reported, indicating the bacteriostatic power, and by the Table 2, giving the stability values in acidic environment. Without having to be construed in a limiting sense, it seems plausible that the greater stability of the macrolide. antibiotics of the present invention can be attributed to the presence in the molecule of the antibiotic of the neutral sugar oleandrose (J. Antib. (1976) XXIX (7), 728).
(§2) Bacteriostatic power in solid medium of Erythromycin A, Erythromycin B,
(§3) aerobic and anaerobic bacteria, Gram positive and Gram negative minimum
(§4) inhibiting concentrations expressed in mcg/ml.

[2] = tested on: Shigella sonnei LRP 5; assay: as above; format: cell-based; settings: Shigella sonnei, LRP5, read-out: minimum inhibiting concentration
Source text: as §1, §2, §3, §4

[3] = tested on: Pseudomonas aeruginosa LRP 9; assay: as above; format: cell-based; settings: Pseudomonas aeruginosa, LRP9, read-out: minimum inhibiting concentration
Source text: as §1, §2, §3, §4

[4] = tested on: Bacteroides fragilis ATCC 23745; assay: Bacteriostatic power in solid medium (MIC), anaerobic; format: cell-based; settings: Bacteroides fragilis
[5] = tested on: Escherichia coli LRP 50; assay: Bacteriostatic power in solid medium (MIC), aerobic Gram negative; format: cell-based; settings: Escherichia coli
[6] = tested on: Staphylococcus aureus LRP 14; assay: Bacteriostatic power in solid medium (MIC), aerobic Gram positive; format: cell-based; settings: Staphylococcus aureus
[7] = tested on: Micrococcus luteus ATCC 9341; assay: as above; format: cell-based; settings: Micrococcus luteus
[8] = tested on: Streptococcus pneumonieae ATCC 6303; assay: as above; format: cell-based; settings: Streptococcus
[9] = tested on: Mycoplasma hominis I ATCC 14097; assay: Bacteriostatic power in solid medium (MIC), aerobic Gram negative; format: cell-based; settings: Metamycoplasma hominis
[10] = tested on: Streptococcus faecalis LRP 7; assay: Bacteriostatic power in solid medium (MIC), aerobic Gram positive; format: cell-based; settings: Enterococcus faecalis
[11] = tested on: Corynebacterium diphteriae LRP 24; assay: as above; format: cell-based; settings: Corynebacterium
[12] = tested on: Bacillus subtilis LRP 25; assay: as above; format: cell-based; settings: Bacillus subtilis
[13] = tested on: Neisseria Gonorrhoeae ATCC 19424; assay: Bacteriostatic power in solid medium (MIC), aerobic Gram negative; format: cell-based; settings: Neisseria gonorrhoeae
[14] = tested on: Acholeplasma laidlawii ATCC 23206; assay: as above; format: cell-based; settings: Acholeplasma laidlawii
[15] = tested on: Staphylococcus aureus ATCC 14154; assay: Bacteriostatic power in solid medium (MIC), aerobic Gram positive; format: cell-based; settings: Staphylococcus aureus, ATCC14154, LRP 78, Erythromicina resistant, read-out: minimum inhibiting concentration
Source text: as §1, §2, §3, §4

[16] = tested on: Micrococcus luteus ATCC 15957; assay: as above; format: cell-based; settings: Micrococcus luteus, ATCC15957, LRP 193, Erythromicina resistant, read-out: minimum inhibiting concentration
Source text: as §1, §2, §3, §4

[17] = tested on: Clostridium perfrigens ATCC 3624; assay: Bacteriostatic power in solid medium (MIC), anaerobic; format: cell-based; settings: Clostridium, ATCC3624, LRP 206, read-out: minimum inhibiting concentration
[18] = tested on: Salmonella typhi LRP 8; assay: Bacteriostatic power in solid medium (MIC), aerobic Gram negative; format: cell-based; settings: Salmonella enterica, TYPHI, read-out: minimum inhibiting concentration
[19] = tested on: Proteus vulgaris ATCC 6380; assay: as above; format: cell-based; settings: Proteus vulgaris
[20] = tested on: Streptococcus pyogenes LRP 197; assay: Bacteriostatic power in solid medium (MIC), aerobic Gram positive; format: cell-based; settings: Streptococcus pyogenes
[21] = tested on: Streptococcus pneumonieae LRP 53; assay: as above; format: cell-based; settings: Streptococcus
[22] = tested on: Streptococcus pneumonieae LRP 52; assay: as above; format: cell-based; settings: Streptococcus
[23] = tested on: Streptococcus faecalis sub. zymogenes ATCC 12958; assay: as above; format: cell-based; settings: Enterococcus faecalis
[24] = tested on: Fusobacterium necrophorum ATCC 27852; assay: Bacteriostatic power in solid medium (MIC), anaerobic; format: cell-based; settings: Fusobacterium necrophorum, ATCC27852, read-out: minimum inhibiting concentration
[25] = tested on: Staphylococcus aureus ATCC 6538 P; assay: Bacteriostatic power in solid medium (MIC), aerobic Gram positive; format: cell-based; settings: Staphylococcus aureus
[26] = tested on: Klebsiella pneumoniae LRP 54; assay: Bacteriostatic power in solid medium (MIC), aerobic Gram negative; format: cell-based; settings: Klebsiella pneumoniae
[27] = tested on: Streptococcus pyogenes ATCC 8668; assay: Bacteriostatic power in solid medium (MIC), aerobic Gram positive; format: cell-based; settings: Streptococcus pyogenes
[28] = physchem; format: physicochemical; settings: acidic environment
Source text: t 1/2 represents the half life time of the antibiotics as determined by
high pressure liquid phase chromatography (HPLC).

With `CC[C@H]1OC(=O)[C@H](C)[C@@H](O[C@H]2C[C@@](C)(OC)[C@@H](O)[C@H](C)O2)[C@H](C)[C@@H](O[C@@H]2O[C@H](C)C[C@H](N(C)C)[C@H]2O)[C@](C)(O)C[C@@H](C)C(=O)[C@H](C)[C@@H](O)[C@H]1C` [Erythromycin B, reference compound] the MIC [1] was 6.25 mg/L (≈ 8.71 µM), the MIC [2] was > 25 mg/L and the MIC [3] was > 25 mg/L. It also gave an MIC ([4]; ATCC23745, solid medium, LRP 205, anaerobic, read-out: minimum inhibiting concentration) of 0.195 mg/L (≈ 0.272 µM), an MIC ([5]; LRP50, solid medium, LRP 50, read-out: minimum inhibiting concentration) of 25 mg/L (≈ 34.8 µM) and an MIC ([6]; LRP14, solid medium, LRP 14, Penycilline resistant, read-out: minimum inhibiting concentration) of 0.195 mg/L (≈ 0.272 µM). The MIC ([7]; ATCC9341, solid medium, LRP 6, read-out: minimum inhibiting concentration) was 0.006 mg/L (≈ 0.00836 µM), the MIC ([8]; ATCC6303, solid medium, LRP 35, read-out: minimum inhibiting concentration) was 0.024 mg/L (≈ 0.0334 µM) and the MIC ([9]; ATCC14097, solid medium, LRP 211, read-out: minimum inhibiting concentration) was > 25 mg/L. The MIC ([10]; LRP7, solid medium, LRP 7, read-out: minimum inhibiting concentration) was 0.195 mg/L (≈ 0.272 µM), the MIC ([11]; LRP24, solid medium, LRP 24, read-out: minimum inhibiting concentration) was 0.012 mg/L (≈ 0.0167 µM) and the MIC ([12]; LRP25, solid medium, LRP 25, read-out: minimum inhibiting concentration) was 0.049 mg/L (≈ 0.0683 µM). The MIC ([13]; ATCC19424, solid medium, LRP 214, read-out: minimum inhibiting concentration) was 0.097 mg/L (≈ 0.135 µM), the MIC ([14]; ATCC23206, solid medium, LRP 204, read-out: minimum inhibiting concentration) was 0.097 mg/L (≈ 0.135 µM) and the MIC [15] was > 25 mg/L. For the same molecule, the MIC [16] was > 25 mg/L, the MIC [17] was 1.56 mg/L (≈ 2.17 µM) and the MIC [18] was 25 mg/L (≈ 34.8 µM). For the same molecule, the MIC ([19]; ATCC6380, solid medium, LRP 13, read-out: minimum inhibiting concentration) was > 25 mg/L, the MIC ([20]; LRP197, solid medium, LRP 197, read-out: minimum inhibiting concentration) was 0.024 mg/L (≈ 0.0334 µM) and the MIC ([21]; LRP53, solid medium, LRP 53, read-out: minimum inhibiting concentration) was 0.024 mg/L (≈ 0.0334 µM). For the same molecule, the MIC ([22]; LRP52, solid medium, LRP 52, read-out: minimum inhibiting concentration) was 0.024 mg/L (≈ 0.0334 µM), the MIC ([23]; ATCC12958, solid medium, LRP 61, read-out: minimum inhibiting concentration) was 0.195 mg/L (≈ 0.272 µM) and the MIC [24] was 6.25 mg/L (≈ 8.71 µM). The MIC ([25]; ATCC6538, solid medium, LRP 39, read-out: minimum inhibiting concentration) was 0.097 mg/L (≈ 0.135 µM), the MIC ([26]; LRP54, solid medium, LRP 54, read-out: minimum inhibiting concentration) was 25 mg/L (≈ 34.8 µM) and the MIC ([27]; ATCC8668, solid medium, LRP 34, read-out: minimum inhibiting concentration) was 0.024 mg/L (≈ 0.0334 µM).

For `CC[C@H]1OC(=O)[C@H](C)[C@@H](O[C@H]2C[C@H](OC)[C@@H](O)[C@H](C)O2)[C@H](C)[C@@H](O[C@@H]2O[C@H](C)C[C@H](N(C)C)[C@H]2O)[C@](C)(O)C[C@@H](C)C(=O)[C@H](C)[C@@H](O)[C@H]1C` [P 15149, 3-O-oleandrosyl-5-O-desosaminyl-erythronolide B], the MIC [1] was 6.25 mg/L (≈ 8.88 µM), the MIC [2] was > 25 mg/L and the MIC [3] was > 25 mg/L. The MIC ([4]; ATCC23745, read-out: minimum inhibiting concentration) was 3.12 mg/L (≈ 4.43 µM), the MIC ([5]; LRP50, read-out: minimum inhibiting concentration) was > 25 mg/L and the MIC ([6]; LRP14, read-out: minimum inhibiting concentration) was 0.78 mg/L (≈ 1.11 µM). The MIC ([7]; ATCC9341, read-out: minimum inhibiting concentration) was 0.097 mg/L (≈ 0.138 µM), the MIC ([8]; ATCC6303, read-out: minimum inhibiting concentration) was 0.097 mg/L (≈ 0.138 µM) and the MIC ([9]; ATCC14097, read-out: minimum inhibiting concentration) was > 25 mg/L. The MIC ([10]; LRP7, read-out: minimum inhibiting concentration) was 0.78 mg/L (≈ 1.11 µM), the MIC ([11]; LRP24, read-out: minimum inhibiting concentration) was 0.049 mg/L (≈ 0.0696 µM) and the MIC ([12]; LRP25, read-out: minimum inhibiting concentration) was 0.039 mg/L (≈ 0.0554 µM). The MIC ([13]; ATCC19424, read-out: minimum inhibiting concentration) was 0.195 mg/L (≈ 0.277 µM), the MIC ([14]; ATCC23206, read-out: minimum inhibiting concentration) was 12.5 mg/L (≈ 17.8 µM) and the MIC [15] was > 25 mg/L. The MIC [16] was > 25 mg/L, the MIC [17] was 12.5 mg/L (≈ 17.8 µM) and the MIC [18] was > 25 mg/L. For the same molecule, the MIC ([19]; ATCC6380, read-out: minimum inhibiting concentration) was > 25 mg/L, the MIC ([20]; LRP197, read-out: minimum inhibiting concentration) was 0.097 mg/L (≈ 0.138 µM) and the MIC ([21]; LRP53, read-out: minimum inhibiting concentration) was 0.097 mg/L (≈ 0.138 µM). For the same molecule, the MIC ([22]; LRP52, read-out: minimum inhibiting concentration) was 0.097 mg/L (≈ 0.138 µM), the MIC ([23]; ATCC12958, read-out: minimum inhibiting concentration) was 0.78 mg/L (≈ 1.11 µM) and the MIC [24] was > 25 mg/L. The half-life ([28]; pH 2) was 18 h, the half-life ([28]; pH 3, read-out: t 1/2) was > 100 h and the half-life ([28]; pH 4, read-out: t 1/2) was > 100 h. For the same molecule, the MIC ([25]; ATCC6538, read-out: minimum inhibiting concentration) was 0.78 mg/L (≈ 1.11 µM), the MIC ([26]; LRP54, read-out: minimum inhibiting concentration) was > 25 mg/L and the MIC ([27]; ATCC8668, read-out: minimum inhibiting concentration) was 0.097 mg/L (≈ 0.138 µM).
